Consider three compounds from ChEMBL document CHEMBL4265883, “Nav1.7 inhibitors for the treatment of chronic pain” (Bioorg Med Chem Lett, 2018).

The species entered for assay [1] is Homo sapiens. The assay is described as follows: Selectivity ratio of IC50 for human Nav1.5 to IC50 for human Nav1.7.
The target in assay [2] is Sodium channel protein type 9 subunit alpha (Homo sapiens, UniProt Q15858). The assay is described as follows: Inhibition of human Nav1.7 expressed in HEK293 cells by electrophysiology assay. The assay is classed as cell-based.
Sodium channel protein type 9 subunit alpha, sequence (Q15858 whole entry): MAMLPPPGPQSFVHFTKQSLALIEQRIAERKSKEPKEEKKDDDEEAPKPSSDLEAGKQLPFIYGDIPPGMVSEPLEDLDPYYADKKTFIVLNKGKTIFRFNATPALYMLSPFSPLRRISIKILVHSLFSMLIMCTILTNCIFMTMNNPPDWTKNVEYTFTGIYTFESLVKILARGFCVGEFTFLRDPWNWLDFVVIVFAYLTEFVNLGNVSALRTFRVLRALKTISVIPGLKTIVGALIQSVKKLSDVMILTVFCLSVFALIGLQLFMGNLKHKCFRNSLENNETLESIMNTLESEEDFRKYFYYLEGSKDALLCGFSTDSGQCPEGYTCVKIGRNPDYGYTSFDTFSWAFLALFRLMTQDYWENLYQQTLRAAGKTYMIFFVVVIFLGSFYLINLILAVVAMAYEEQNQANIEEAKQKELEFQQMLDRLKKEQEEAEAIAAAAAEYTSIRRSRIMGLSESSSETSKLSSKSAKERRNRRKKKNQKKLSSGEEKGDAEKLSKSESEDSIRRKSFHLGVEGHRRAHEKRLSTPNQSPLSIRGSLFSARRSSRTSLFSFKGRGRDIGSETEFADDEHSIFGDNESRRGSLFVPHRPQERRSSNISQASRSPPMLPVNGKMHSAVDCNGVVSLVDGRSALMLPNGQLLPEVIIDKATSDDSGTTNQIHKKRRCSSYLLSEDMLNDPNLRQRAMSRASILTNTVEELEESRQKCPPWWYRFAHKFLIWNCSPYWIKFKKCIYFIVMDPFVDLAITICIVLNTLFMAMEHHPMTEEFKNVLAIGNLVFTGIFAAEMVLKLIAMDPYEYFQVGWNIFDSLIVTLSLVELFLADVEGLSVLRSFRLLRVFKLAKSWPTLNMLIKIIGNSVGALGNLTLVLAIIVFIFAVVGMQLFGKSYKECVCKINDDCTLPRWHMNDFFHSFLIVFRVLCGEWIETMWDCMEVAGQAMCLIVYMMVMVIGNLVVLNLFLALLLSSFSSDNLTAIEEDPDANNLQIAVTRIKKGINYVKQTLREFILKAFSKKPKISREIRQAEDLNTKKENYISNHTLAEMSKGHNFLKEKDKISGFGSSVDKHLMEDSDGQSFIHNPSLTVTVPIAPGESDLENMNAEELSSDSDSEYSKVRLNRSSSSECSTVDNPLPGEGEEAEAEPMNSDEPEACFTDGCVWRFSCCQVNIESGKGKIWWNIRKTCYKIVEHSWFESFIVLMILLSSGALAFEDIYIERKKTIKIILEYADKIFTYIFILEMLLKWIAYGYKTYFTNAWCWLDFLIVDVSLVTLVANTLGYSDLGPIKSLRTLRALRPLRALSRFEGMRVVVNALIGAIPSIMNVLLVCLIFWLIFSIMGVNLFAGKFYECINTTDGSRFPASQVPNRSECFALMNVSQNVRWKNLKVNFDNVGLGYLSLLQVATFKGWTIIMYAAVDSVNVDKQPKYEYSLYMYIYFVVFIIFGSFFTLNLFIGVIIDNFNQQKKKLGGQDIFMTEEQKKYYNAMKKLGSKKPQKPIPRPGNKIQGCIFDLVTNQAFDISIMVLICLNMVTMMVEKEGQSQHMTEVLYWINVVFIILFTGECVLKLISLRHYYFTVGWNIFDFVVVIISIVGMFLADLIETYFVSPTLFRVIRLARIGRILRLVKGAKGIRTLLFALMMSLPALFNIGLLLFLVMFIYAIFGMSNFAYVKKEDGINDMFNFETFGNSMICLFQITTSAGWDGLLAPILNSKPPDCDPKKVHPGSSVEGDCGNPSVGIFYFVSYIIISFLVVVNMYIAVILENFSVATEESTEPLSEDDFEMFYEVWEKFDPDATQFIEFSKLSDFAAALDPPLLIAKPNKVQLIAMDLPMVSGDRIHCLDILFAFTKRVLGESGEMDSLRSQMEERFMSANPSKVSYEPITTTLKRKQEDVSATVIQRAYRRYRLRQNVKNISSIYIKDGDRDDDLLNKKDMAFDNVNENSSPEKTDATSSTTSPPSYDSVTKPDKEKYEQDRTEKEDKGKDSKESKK

A word on the IC50: it is the midpoint of a concentration-inhibition curve.

As to `O=C(O)[C@@H]1C[C@@H](F)CN1C(=O)c1cc(C2CC2)c(OCC2CCN(Cc3c(Cl)cccc3Cl)CC2)cc1F`, in assay [1], the Ratio IC50 is > 150. In turn, `Cc1nn(-c2cnc(OCC(C)C)c(Cl)c2)c2ccc(C(=O)NS(C)(=O)=O)cc12` [PF-05241328] yielded an IC50 in assay [2] of 31 nM. On to `CN[C@H](CNc1cc(F)c(S(=O)(=O)Nc2nccs2)cc1Cl)Cc1cccc(Cl)c1`, for which the Ratio IC50 in assay [1] was > 1380. In assay [2], this compound gave an IC50 of 15 nM.
